Measured values published in ChEMBL document CHEMBL3232731, “Diterpene glycosides and polyketides from Xylotumulus gibbisporus” (J Nat Prod, 2014).
pIC50: −log10 of the molar value. In brackets after ≈: the same amount, converted by molar mass.

Assays:
RAW264.7 [1] = assay: Cytotoxicity against mouse RAW264.7 cells by Alamar Blue assay; assay type: cell-based
RAW264.7 [2] = assay: Antiinflammatory activity in mouse RAW264.7 cells assessed as inhibition of LPS-induced nitric oxide production by spectrophotometric analysis; assay type: functional, cell-based
Candida albicans [3] = assay: Antifungal activity against Candida albicans ATCC MYA-2876 by NCCLS method; assay type: functional
Candida albicans [4] = assay: Antifungal activity against Candida albicans ATCC 18804 by NCCLS method; assay type: functional
Saccharomyces cerevisiae = assay: Antifungal activity against Saccharomyces cerevisiae ATCC 2345 by NCCLS method; assay type: functional

| SMILES | Activity (RAW264.7 [1]) | pIC50 (RAW264.7 [2]) | MIC (Candida albicans [3]) [µg/mL] | MIC (Candida albicans [4]) [µg/mL] | MIC (Saccharomyces cerevisiae) [µg/mL] |
| --- | --- | --- | --- | --- | --- |
| CO[C@H]1[C@@H](O)[C@H](O)[C@H](OC[C@@]23C[C@@H]4[C@H](C)CC[C@H]4[C@@]4(C=O)C[C@@H]2C(=O)C(=C(C)C)[C@@]34C(=O)O)O[C@@H]1C | Non-toxic | 3.49 | – | – | – |
| N=C(NCCC[C@H](N)C(=O)O)N[N+](=O)[O-] [NITROARGININE] | – | 3.83 | – | – | – |
| N=C(N)NN [PIMAGEDINE] | – | 4.65 | – | – | – |
| CO[C@H]1[C@@H](O)[C@H](O)[C@H](OC[C@@]23C[C@@H]4[C@H](C)CC[C@H]4[C@@]4(C=O)CC2C=C(C(C)C)[C@@]34C(=O)O)O[C@@H]1C [SORDARIN] | Non-toxic | 3.80 | 32 (≈ 65 µM) | 64 (≈ 130 µM) | 32 (≈ 65 µM) |
